Measured values taken from article PMC12098869, “An mRNA-display derived cyclic peptide scaffold reveals the substrate binding interactions of an N-terminal cysteine oxidase” (Nature Communications, 2025).
Where a chain is given by its changes, count along the chain named. Names may count otherwise. “And” between values parts separate entries of the source, which are not always exact repeats. Equal values may be shown once. Where a SMILES comes first, the peptide text is derived from it. Bridges are numbered along the chain shown (N, C = ends). Where no end group is shown, it is not given here. [ ]: non-standard residue; d: D form.

Columns and labels:
ADO-I109A = target: T1, ADO-I109A (Homo sapiens, UniProt Q96SZ5, I109A); experiment: SPR binding of substrate peptides to ADO variant
T1 construct: Full-length human ADO (Uniprot ID: Q96SZ5) was cloned; made in house; host or cells: E. coli Rosetta2(DE3)
T1 sequence (Q96SZ5 whole entry I109A): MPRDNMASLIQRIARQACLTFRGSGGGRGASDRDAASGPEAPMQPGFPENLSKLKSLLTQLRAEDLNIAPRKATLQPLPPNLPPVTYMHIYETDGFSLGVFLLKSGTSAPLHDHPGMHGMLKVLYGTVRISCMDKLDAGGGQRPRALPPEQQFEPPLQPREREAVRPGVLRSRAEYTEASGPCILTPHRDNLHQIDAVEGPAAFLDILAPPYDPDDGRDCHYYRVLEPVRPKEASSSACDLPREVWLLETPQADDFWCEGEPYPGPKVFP
Excerpt: (§1) Having verified the accuracy of the substrate analogue-bound crystal structures using MD simulations, key active site residues were mutated to assess their impact on binding and activity using SPR and LCMS. They were chosen based on their proximity to the substrate moieties and their conservation across species, including plants, where NCOs are called plant cysteine oxidases (PCOs; Fig. 5)[9],[10]. Two representative substrates, RGS5_2-15 and IL32_2-15 (a synthetic peptide corresponding to the methionine excised N-terminus of IL32, residues 2–15), were tested to compare interactions with different amino acid sequences.
(§2) SPR measurements were made using a Biacore T200 (Cytiva) instrument and data were analysed using the Biacore Insight Evaluation Software. Biotinylated-ADO was immobilised on a Biotin CAP chip (Cytiva) with a target density of ∼2500–3000 RU and peptide/protein substrates were injected over the chip. Experiments were conducted at 4 °C using both multi-cycle (fit using the equilibrium steady state affinity 1:1 binding model) and single-cycle kinetics mode (fit using a 1:1 binding model). A buffer comprising 20 mM HEPES pH 7.5, 500 mM NaCl, 10 mM DTT, and 0.1% (v/v) tween-20 was used as the running buffer at a flow rate of 50 μL/minute.
(§3) Supplementary Figure 20. SPR analysis of ADO variants with RGS5 peptide. (Left) Representative SPR sensorgram for the titration of RGS52-15 with amino acid substituted ADO. (Right) Fits of the equilibrium responses from the sensorgram in the left panels to a 1:1 binding model. The Kᴅ values are shown (Kᴅ given as the geometric mean of a minimum of three independent SPR measurements (n=3) with standard error). […] The […]
(§4) sensorgram is shown in red and the fit to the data is shown in black. The concentrations of RGS52-15 used in the titration are 25.6 nM, 64 nM, 160 nM, 400 nM, 1000 nM. The Kᴅ value is shown (Kᴅ given as the geometric mean of a minimum of three independent SPR measurements). Source data are provided as Source Data file.
(§5) (1 picture or pasted object on this page, not shown here)
(§6) Supplementary Figure 21. SPR analysis of ADO variants with IL32 peptide. (Left) Representative SPR sensorgram for the titration of IL322-15 with amino acid substituted ADO. (Right) Fits of the equilibrium responses from the sensorgram in the left […]
(§7) sensorgram is shown in red and the fit to the data is shown in black. The concentrations of IL322-15 used in the titration are 25.6 nM, 64 nM, 160 nM, 400 nM, 1000 nM. The Kᴅ value is shown (Kᴅ given as the geometric mean of a minimum of three independent

ADO-Y87F = target: T2, ADO-Y87F (Homo sapiens, UniProt Q96SZ5, Y87F); experiment: SPR binding of substrate peptides to ADO variant
T2 construct: Full-length human ADO (Uniprot ID: Q96SZ5) was cloned; made in house; host or cells: E. coli Rosetta2(DE3)
T2 sequence (Q96SZ5 whole entry Y87F): as the sequence (Q96SZ5 whole entry I109A) above, with Y87F, A109I counted along it
Excerpt: as §1, §2, §3, §4, §5, §6, §7

ADO-D206A = experiment: SPR binding of substrate peptides to ADO variant; set-up: species or system human
Excerpt: as §1, §2
Supplementary Figure 20. SPR analysis of ADO variants with RGS5 peptide. […]

ADO-D206N = target: T3, ADO-D206N (Homo sapiens, UniProt Q96SZ5, D206N); experiment: SPR binding of substrate peptides (native and oxidised) to ADO variant; settings: up to 100 μM
T3 construct: Full-length human ADO (Uniprot ID: Q96SZ5) was cloned; made in house; host or cells: E. coli Rosetta2(DE3)
T3 sequence (Q96SZ5 1-270 D206N): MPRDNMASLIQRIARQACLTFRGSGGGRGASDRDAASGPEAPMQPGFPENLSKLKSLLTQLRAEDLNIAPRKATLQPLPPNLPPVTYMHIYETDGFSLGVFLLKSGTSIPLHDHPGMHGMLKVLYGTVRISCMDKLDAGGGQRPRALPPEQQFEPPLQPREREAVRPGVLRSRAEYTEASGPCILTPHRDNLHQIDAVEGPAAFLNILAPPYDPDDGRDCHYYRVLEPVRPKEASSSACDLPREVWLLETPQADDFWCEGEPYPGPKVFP
Excerpt: as §1
ADO cannot bind oxidised peptide or protein sequences (i.e. those bearing Nt-Cys sulfinic acid/sulfinate)[36]. To explore whether ADO-D206 plays a role in product release through protonation or charge repulsion, the binding of oxidised RGS5_2-15 and IL32_2-15 to ADO-D206N was monitored by SPR (Supplementary Fig. 22). […] Given its position in the active site (and the fact that many ADO-D206 variants bind substrate), this implies that ADO-D206 contributes to ADO activity through an interaction with O2 during turnover.
SPR measurements were made using a Biacore T200 (Cytiva) instrument and data were analysed using the Biacore Insight Evaluation Software. […]

ADO-Y212A = target: T4, ADO-Y212A (Homo sapiens, UniProt Q96SZ5, Y212A); experiment: SPR binding of substrate peptides to ADO variant
T4 construct: Full-length human ADO (Uniprot ID: Q96SZ5) was cloned; made in house; host or cells: E. coli Rosetta2(DE3)
T4 sequence (Q96SZ5 whole entry Y212A): as the sequence (Q96SZ5 whole entry I109A) above, with A109I, Y212A counted along it
Excerpt: as §1, §2, §3, §4, §5, §6, §7

[1] = target: T5, 2-aminoethanethiol dioxygenase (ADO), full-length human, N-terminally His-tagged and biotinylated … (human, UniProt Q96SZ5 1-270, biotin (biotinylated during expression, 0.2 mM biotin added)); experiment: SPR; single-cycle kinetics (1:1 binding model); biotinylated ADO immobilised on a Biotin CAP chip (~2500-3000 RU), cyclic peptide injected; Biacore T200, 4 °C; 20 mM HEPES pH 7.5, 500 mM NaCl, 10 mM DTT, 0.1% tween-20; 50 µL/minute; each cell is one of three independent measurements; settings: both partners purified
T5 construct: 2-aminoethanethiol dioxygenase (ADO), human, UniProt Q96SZ5, full length; Immobilised through its biotin on a Biotin CAP chip for SPR; also called wild type ADO; Biotinylated-ADO; source: E. coli Rosetta2(DE3), purified (Ni-NTA, SEC); not shown: biotinylation tag (from the vector pQE80L-Navi), N-terminal, kept
T5 sequence (looked up): T3 sequence (Q96SZ5 1-270 D206N) with N206D

[2] = target: 2-aminoethanethiol dioxygenase (ADO), full-length human, N-terminally His-tagged and biotinylated (pQE80L-Navi-ADO) (human) (UniProt Q96SZ5)
[3] = target: 2-aminoethanethiol dioxygenase (ADO), wild type, biotinylated (pQE80L-Navi-ADO) (human)
[4] = target: 2-aminoethanethiol dioxygenase (ADO), wild type, biotinylated (pQE80L-Navi-ADO) (human); experiment: SPR; single-cycle kinetics (SCK), 1:1 binding model; biotinylated ADO or variant immobilised on a Biotin CAP chip, peptide injected at 25.6, 64, 160, 400, 1000 nM; 4 °C; 20 mM HEPES pH 7.5, 500 mM NaCl, 10 mM DTT, 0.1% (v/v) tween-20; 50 μL/minute
[5] = target: T6, 2-aminoethanethiol dioxygenase (ADO), wild type, biotinylated (pQE80L-Navi-ADO) (human, biotin on the Avi tag); experiment: as above; settings: both partners purified
T6 construct: 2-aminoethanethiol dioxygenase (ADO), human, full length; also called Biotinylated-ADO; source: E. coli Rosetta2(DE3), purified (Ni-NTA, SEC); not shown: Avi tag, N-terminal, kept; His6, N-terminal, kept
T6 chain: T3 sequence (Q96SZ5 1-270 D206N) with N206D

[6] = target: T7, 2-aminoethanethiol dioxygenase (ADO), full-length human, N-terminally His-tagged and biotinylated … (human, UniProt Q96SZ5 1-270, biotin (biotinylated during expression, 0.2 mM biotin added)); experiment: cell-based or functional assay
T7 sequence (looked up): T3 sequence (Q96SZ5 1-270 D206N) with N206D

CC(C)C[C@H](NC(=O)CNC(=O)[C@H](CCCCN)NC(=O)[C@@H](N)CS)C(=O)N[C@@H](C)C(=O)N[C@@H](C)C(=O)N[C@@H](CC(C)C)C(=O)N1CCC[C@H]1C(=O)N[C@@H](Cc1c[nH]cn1)C(=O)N[C@@H](CO)C(=O)N[C@@H](CS)C(=O)N[C@@H](CC(C)C)C(=O)N[C@@H](CCC(=O)O)C(=O)N[C@@H](CCCNC(=N)N)C(N)=O [14-mer RGS5] (H-CKGLAALPHSCLER-NH2; C-terminus assumed)
fold increase in KD relative to wild type ADO (ADO-I109A): 2 fold
KD (ADO-Y87F; replicate 1): 339 nM
KD (ADO-Y87F; replicate 3): 339 nM
binding to ADO-D206A (in words) (ADO-D206A): no binding

oxidised RGS5_2-15: RGS5_2-15 bearing Nt-Cys sulfinic acid/sulfinate, obtained through pre-incubation with ADO ([Cys sulfinic acid]KGLAALPHSCLER)
binding of oxidised peptide to ADO-D206N (in words) (ADO-D206N): No association was observed

CSCC[C@H](NC(=O)[C@H](CC(=O)O)NC(=O)[C@H](CC(=O)O)NC(=O)[C@H](CO)NC(=O)[C@H](CC(C)C)NC(=O)[C@@H](NC(=O)[C@H](CCCCN)NC(=O)[C@@H]1CCCN1C(=O)[C@H](Cc1ccccc1)NC(=O)[C@@H](N)CS)C(C)C)C(=O)N[C@@H](CCCCN)C(=O)N[C@@H](CCCCN)C(=O)N[C@@H](CC(C)C)C(=O)N[C@@H](CCCCN)C(N)=O [14-mer IL32] (H-CFPKVLSDDMKKLK-NH2; C-terminus assumed)
fold increase in KD relative to wild type ADO (ADO-I109A): 35 fold
KD (ADO-Y212A; replicate 2): 24700 nM
KD (ADO-Y212A; replicate 3): 24700 nM
binding to ADO-D206A (in words) (ADO-D206A): no binding

oxidised IL32_2-15: IL32_2-15 bearing Nt-Cys sulfinic acid/sulfinate, obtained through pre-incubation with ADO ([Cys sulfinic acid]FPKVLSDDMKKLK)
binding of oxidised peptide to ADO-D206N (in words) (ADO-D206N): No association was observed

B1: CP6-F6S (peptide)
peptide: {CH2CO}-YIVKTSWLGSHRQC
modifications: thioether N-14
notes: the substitution F6S is to be applied to them; Single amino acid substituent of CP6; source: synthetic peptide
Kd [1]: 5.8 nM and 5.64 nM and 5.96 nM
IC50 of inhibition of ADO activity [2]: 200 nM
IC50 of inhibition of ADO activity (oxidation of RGS5 (2-15) followed by LCMS; enzyme from the pET28a-ADO construct); blocks ADO with RGS5 (2-15) [3]: 0.19 µM
Kd [4]: 5.8 nM

B2: cyclic peptide CP6 (peptide)
peptide: {CH2CO}-YIVKTFWLGSHRQC-NH2
modifications: thioether N-14
SMILES: CC[C@H](C)[C@@H]1NC(=O)[C@H](Cc2ccc(O)cc2)NC(=O)CSC[C@@H](C(N)=O)NC(=O)[C@H](CCC(N)=O)NC(=O)[C@H](CCCNC(=N)N)NC(=O)[C@H](Cc2c[nH]cn2)NC(=O)[C@H](CO)NC(=O)CNC(=O)[C@H](CC(C)C)NC(=O)[C@H](Cc2c[nH]c3ccccc23)NC(=O)[C@H](Cc2ccccc2)NC(=O)[C@H]([C@@H](C)O)NC(=O)[C@H](CCCCN)NC(=O)[C@H](C(C)C)NC1=O
notes: selected by RaPID mRNA display against ADO; also called ADO-L-06; source: synthetic peptide (Fmoc-SPPS)
Kd [5]: 30 nM

B3: CP6-K4A (peptide)
peptide: {CH2CO}-YIVATFWLGSHRQC
modifications: thioether N-14
IC50 of inhibition of ADO activity [6]: 21000 nM
